What all share (assay type): physicochemical
Data set [1] is described as follows: Solubility of the active ingredient in comparable solvents (polar to nonpolar). As for the experimental part: These values are expressed in mg/ml and determined at a temperature of 25°C at 1 atm. In a preferred embodiment, also the solubility is determined in water-based systems having different pH's, or having different temperatures; and in water-based systems wherein co-solvents are present; and in stomach or intestinal media. Solubility information in a broad range of solvents (including oils, dichloromethane, methanol), is useful because the knowledge of in which type of solvents the active ingredient dissolves well, helps in designing a NADES with similar properties.

Data set [2] in a line: Particle size of precipitate after about 100 fold dilution of the NADES:PPI formulation with intestinal medium (FaSSIF), optical microscopy. How it is done: All PPI's that are soluble at approximately a PPI to active ingredient ratio of 1 to 5 are selected for the next stage of testing. A small sample of for example 100 µl is taken from the NADES:PPI mixture and the appropriate mass of active ingredient is solubilized in the system as above. Each NADES: PPI: active ingredient sample is diluted approximately 100 fold with intestinal medium solutions e.g. Fast State Simulated Intestinal Fluid (FaSSIF). The system with the smallest particle size over a 2 hour period is determined to be the best performing formulation. The particle size is determined using visual inspection and optical microscopy.
The precipitant molecules should in this light have a size less than approximately 10/µm, preferably less than 5µm and ideally less than about 1µm. These sizes are measured at 10 minute intervals over a 2 hours period to analyse the crystal growth. The crystal sizes are monitored using an optical microscope in initial samples; yet are more accurately measured after 2 hours using a Malvern Mastersizer 3000 or similar particle sizing equipment.
Below are microscope images of formulations of flufenamic acid diluted with intestinal medium. The dilution is approximately similar to 1ml of formulation being released into the intestine. The goal is to have sufficiently small particle sizes for a sufficiently long period of time to promote drug absorption. Figures 1, 2 and 3 show progressions in particle size of flufenamic acid in formulations designed using the present invention.
The following example is of a poorly water-soluble molecule, Paclitaxel, and the process of designing a system using the aforementioned invention. […] The second objective was to select one or more PPI's capable of controlling the size of precipitant upon an approximately 100 fold dilution with intestinal medium. The target dose of the formulation was 30mg/ml. The variation in particle size between formulations was analysed with visual inspection. The best performing formulations were compared with a size calibrated optical microscope and camera.

A short description of data set [3]: Stability of the active ingredient (pH, storage). How it is done: Suitable secondary criteria are for instance the absolute oral bioavailability, typically denoted as a percentage of the maximum bioavailability of 100% which is defined as the bioavailability of the intravenous formulation as measured in a living being such as those used in animal trials or in human trials. Bioavailability is measured as the AUC (Area Under Curve) of the plasma concentration of a drug collected over a certain period of time, which depends on the half-life of the drug. Another suitable criterion is the stability data (such as temperature sensibility and pH range of stability expressed in time units). This is expressed as a duration in days/months/years where the compound has not undergone unacceptable levels of degradation (<10%) in specific conditions e.g. low pH.

Data set [4] is described as follows: Solubility of the active ingredient in NADES. The note with it: thermodynamic from solid. How it is done:
Subsequently, selected constituents are weighed out in the appropriate molar ratios and corresponding masses and are added to a suitable receptacle, such as a small bottle or other small vessel. In the receptacle generally a stirring element is added, such as a stirring flea. If two or more solid constituents are present, these are generally heated, for instance to about 70°C. When at least one liquid constituent is present, it is generally not needed to heat the system to temperatures higher than about 50°C. The constituents are stirred. When two (or more) solid constituents are mixed, this often leads to high or very high viscosities, in which case addition of some water or other liquid excipients such as propylene glycol is recommended. The stirring is continued until a clear liquid is formed.
After a clear liquid is obtained, it is preferred to let it cool and sit for 24 hours or so, as a check for stability. If a NADES is not stable at RT (room temperature; in other words, if the eutectic point is higher than RT at the selected molar ratio), one can try adding additional constituents or trying a different molar ratio.
Once cooled, the pH of the system is measured. An acidic NADES will in general be good at solubilizing a basic active ingredient due to protonation and vice versa. The stability can also be influenced by the pH, where usually a range of pH values is given that results in the best stability.
Usually it is apparent within an hour whether or not a solvent is going to achieve any worthwhile solubility value. If the solute sticks to the side of the receptacle and/or floats on top, investigation into this solvent can be terminated. If the solute makes for a cloudy solution, further dilution may yield success.

The nature of data set [5]: pKa of the active ingredient. The source says:
Further, the analysis also at least involves determination of acidity/basicity of the compound by determining the pKa value by standard methods. In the case of previously analyzed compounds such information typically available in published literature.

The mark [6] stands for this setting: NADES, organic solvent or mixture, Choline Chloride: Propylene Glycol (1:3), pH 6.71.

≈ marks a conversion by molar mass, not a printed value. Like-named read-outs stand apart in the source and are kept apart here.

Consider `O=C(O)c1ccccc1Nc1cccc(C(F)(F)F)c1` [Flufenamic acid], for which the solubility in cyclohexane entry in data set [1] (cyclohexane) is given as “very low”. In addition, the solubility was > 50 mg/mL in data set [1] (dimethyl sulfoxide, 25 °C, organic solvent or mixture, read-out: solubility in dimethyl sulfoxide); > 50 mg/mL in data set [1] (ethanol, 25 °C, organic solvent or mixture, read-out: solubility in ethanol); 0.009 mg/mL (≈ 0.032 mM) in data set [1] (water, 25°C and 1atm, read-out: Water solubility); 28 mg/mL (≈ 99.6 mM) in data set [4] (setting [6]); < 1 mg/mL in data set [4] (aqueous with cosolvent or surfactant or cyclodextrin, Choline chloride: Lactic acid: water (2:1:2), pH 2.19, polar NADES); 93.1 mg/mL (≈ 331 mM) in data set [4] (organic solvent or mixture, Acetamide: Propylene Glycol (1:2), pH 6.47, basic NADES). Further, the solubility in data set [4] (organic solvent or mixture, Acetamide: Propylene Glycol (1:3), pH 6.89, basic NADES) was 50 mg/mL (≈ 178 mM); in data set [4] (organic solvent or mixture, Choline Chloride: Ethylene Glycol (1:3), pH 6.08, neutral NADES), 28 mg/mL (≈ 99.6 mM); in data set [4] (organic solvent or mixture, Choline chloride: glucose: butylene glycol (2:1:1), polar NADES), < 1 mg/mL; in data set [4] (organic solvent or mixture, Sorbitol: Urea (1:1), pH 8.3, polar NADES), < 1 mg/mL. Moreover, in data set [1] (hexane), the solubility in hexane result is given as “very low”. For the same compound, the “solubility in mineral oil (paraffin oil)” value in data set [1] (mineral oil (paraffin oil)) is reported as “very low”. The Water solubility entry in data set [1] (water, 25°C and 1atm) is on record as “very low”. In data set [2] (28 mg/ml in choline chloride: propylene glycol (1:3) with 14 mg/ml Polyethylene Glycol-4000 solubilized in FaSSIF, 40x magnification), the “Particle size result (microscope photograph, Fig. 2)” value is given as “poor result”. Also, the “Particle size result (microscope photograph, Fig. 3)” value in data set [2] (28 mg/ml in choline chloride: propylene glycol (1:3) with 56 mg/ml Polyethylene Glycol-4000 solubilized in FaSSIF, 40x magnification) is recorded as “good result”. In addition, the Stability result in data set [3] (both acidic and basic aqueous solutions, period of 3 months at RT) is on record as “stable”. The pKa in data set [5] (read-out: pKa) came to 3.65.

Regarding `CC(=O)O[C@H]1C(=O)[C@@]2(C)[C@H]([C@H](OC(=O)c3ccccc3)[C@]3(O)C[C@H](OC(=O)[C@H](O)[C@@H](NC(=O)c4ccccc4)c4ccccc4)C(C)=C1C3(C)C)[C@]1(OC(C)=O)CO[C@@H]1C[C@@H]2O` [Paclitaxel], the solubility in data set [1] (caster oil, 25 °C, oil or lipid, read-out: approximate solubility in caster oil) was 15 to 20 mg/mL (≈ 17.6 to 23.4 mM); in data set [1] (olive oil, 25 °C, oil or lipid, read-out: approximate solubility in olive oil) it was 15 to 20 mg/mL (≈ 17.6 to 23.4 mM); in data set [4] (setting [6]), 30 mg/mL (≈ 35.1 mM); in data set [4] (aqueous with cosolvent or surfactant or cyclodextrin, Malic acid: Beta alanine: Water (1:1:2), pH 3.43, acidic NADES), < 1 mg/mL; in data set [4] (aqueous with cosolvent or surfactant or cyclodextrin, Sucrose: Glucose: Fructose: Water (1:1:1:8), pH 3.36, polar NADES) it was < 1 mg/mL; in data set [4] (pH 9.8, aqueous with cosolvent or surfactant or cyclodextrin, Choline Chloride: Urea: Water (1:1:2), pH 9.80, polar NADES), < 1 mg/mL. Moreover, in data set [1] (ethanol), the solubility in ethanol came to 1.5 mg/mL (≈ 1.76 mM). Also, the “Particle size result (microscope photograph, Fig. 4)” value in data set [2] (30 mg/ml in choline chloride: propylene glycol (1:3) with 30 mg/ml hypromellose acetate succinate solubilized in FaSSIF, 40x magnification) was “good result”. Moreover, in data set [2] (formulation diluted with intestinal medium, particles less than 1 µm not detected by optical microscopy), the “Particle size, majority of observable particles (Fig. 4)” value was “less than 10 µm”. Moreover, the “pH range in which most stable” value in data set [3] is 3-6 pH. The “Stability at basic pH” value in data set [3] (basic pH (8)) is listed as “degrades quickly”. Also, the pKa in data set [5] and in data set [5] (read-out: pKa) was 11.9 each time.

These data come from EP3485874A1, “METHOD OF PREPARING A NATURAL DEEP EUTECTIC SOLVENT (NADES)-ACTIVE INGREDIENT SYSTEM; A NADES-, AND PREFERABLY A POLYMERIC PRECIPITATION INHIBITOR CONTAINING NADES-, BASED DRUG FORMULATION TECHNOLOGY AND DEVELOPMENT METHOD” (SeraNovo B.V., priority 2017, dated 2019).
